Reference: patent US11570982B2, “Systems and methods for natural cryoprotectants for preservation of cells” (Membrane Protective Technologies, Inc., priority 2016, dated 2023)

Assay: Antioxidant activity (Trolox equivalent) of materials substituted for glycerol

## OCC(O)CO [Glycerol, glycerol]
  Antioxidant (Trolox equivalent μM/g): 0 µM/g
